Tested on: dystrophin exon 23
Assay: Dystrophin expression (immunostaining of muscle sections) in mdx dystrophic mice after antisense oligonucleotide PMOE23
Format: in vivo, mouse
Protocol: The mdx dystrophic mouse contains a nonsense point mutation in the dystrophin exon 23. PMOE23 (5′[…]-3′) (SEQ ID NO:1) oligo binds to the exon-intron boundary of the dystrophin exon 23, resulting in the skip of the exon 23 and restoration of the reading frame and the expression of the dystrophin protein. The mdx mice are treated with antisense oligonuleotide PMOE23 (5′[…]-3′) (SEQ ID NO:1) via intravenous injection and the muscles are examined 2 weeks later. Saline treated, mouse was treated with saline without PMO as control. PMO only, mouse was treated with single dose 1 mg PMO only. PMO+Repa, mouse was treated with single dose 1 mg PMO and Repaglinide. 100 microgram Repaglinide was gavaged before the injection of PMO. Quad, quadriceps. Blue are DAPI stained nuclei; red staining representing membrane localized dystrophin expression.
A comparison of levels of dystrophin expression after treatment with morpholino antisense oligonucleotide PMOE23 and Eicosapentaenoic acid (EPA)-linked PMOE23 in 4-6 weeks old mdx dystrophic mice. […] PMOE23 (5′[…]-3′) (SEQ ID NO:1) oligo binds to the exon-intron boundary of the dystrophin exon 23, resulting in the skip of the exon 23 and restoration of the reading frame and the expression of the dystrophin protein. […] 6 μm sections were cut from freshly frozen muscles and stained with rabbit anti-dystrophin antibody P7 and detected with goat-anti-rabbit Ig-Alexa 594. […] Images were taken by Olympus BX52 fluorescence microscope.
A comparison of levels of dystrophin expression after treatment with morpholino antisense oligonucleotide PMOE23 and PMOE23 in combination with the use of insulin in 4-6 weeks old mdx dystrophic mice. […] PMOE23 (5′[…]-3′) (SEQ ID NO:1) oligo binds to the exon-intron boundary of the dystrophin exon 23, resulting in the skip of the exon 23 and restoration of the reading frame and the expression of the dystrophin protein. […] 6 μm sections were cut from freshly frozen muscles and stained with rabbit anti-dystrophin antibody P7 and detected with goat-anti-rabbit Ig-Alexa 594. […] Images were taken by Olympus BX52 fluorescence microscope.

“PMO only: morpholino antisense oligonucleotide PMOE23, 5′GGCCAAACCTCGGCTTACCTGAAAT-3′ (SEQ ID NO:1), skips dystrophin exon 23 (all phosphorodiamidate morpholino (PMO))” was tested, and the “number of dystrophin positive fibers / membrane localized dystrophin expression in muscle” value (Example 1, FIG. 1: mdx mice, single dose 1 mg PMO intravenous, 100 microgram Repaglinide gavaged before PMO, muscles examined 2 weeks later) was “only a few muscle fibers expressing weak dystrophin”, the “number of dystrophin positive fibers / membrane localized dystrophin expression in muscle” value (Example 2, FIG. 2: 4-6 weeks old mdx mice, single intravenous dose 1 mg PMOE23 or 0.7 mg EPA-linked PMOE23, muscles examined 2 weeks later, antibody P7) was “only a few muscle fibers expressing weak dystrophin” and the “number of dystrophin positive fibers / membrane localized dystrophin expression in muscle” value (Example 3, FIG. 3: 4-6 weeks old mdx mice, single intravenous dose 1 mg PMOE23, 0.5 unit Insulin subcutaneously immediately after PMO, muscles examined 2 weeks later, antibody P7) was “only a few muscle fibers expressing weak dystrophin”.

Reference: patent US20170173069A1, “METHODS OF NUCLEOTIDE AND GENE DELIVERY USING MEMBRANE TRANSPORT MECHANISMS” (The Charlotte Mecklenburg Hospital Authority d/b/a …, priority 2015, published 2017)
